Results published in paper PMC5218480 (PLoS ONE, 2017).

Test system: MV-4-11 cells
Test: Gene expression microarray analysis (Affymetrix PrimeView) and GSEA
Assay type: cell-based, human
Design: RFU PODN (11730768_x_at) / Fold change /veh PODN (11730768_x_at) / RFU LINC00158 (11744669_a_at) / Fold change /veh LINC00158 (11744669_a_at) / RFU DUSP10 (11751237_a_at) / Fold change /veh DUSP10 (11751237_a_at) / RFU ID3 (11757404_x_at) / Fold change /veh ID3 (11757404_x_at) / RFU PLEKHG5 (11737974_s_at) / Fold change /veh PLEKHG5 (11737974_s_at) / RFU LRRC4B (11730491_at) / Fold change /veh LRRC4B (11730491_at) / RFU GIMAP4 (11747438_a_at) / Fold change /veh GIMAP4 (11747438_a_at) / RFU KRT8 (11758183_x_at) / Fold change /veh KRT8 (11758183_x_at) / RFU CNN1 (11734310_a_at) / Fold change /veh CNN1 (11734310_a_at) / RFU VPS37D (11726825_at) / Fold change /veh VPS37D (11726825_at) / RFU C10orf10 (11716522_x_at) / Fold change /veh C10orf10 (11716522_x_at) / RFU KIR2DL2 /// KIR2DL4 /// KIR2DL5A /// KIR2DL5B /// KIR2DS1 /// KIR2DS2 /// KIR2DS3 /// KIR2DS4 /// KIR3DL3 /// KIR3DL3 /// KIR3DS1 (11738374_at) / Fold change /veh KIR2DL2 /// KIR2DL4 /// KIR2DL5A /// KIR2DL5B /// KIR2DS1 /// KIR2DS2 /// KIR2DS3 /// KIR2DS4 /// KIR3DL3 /// KIR3DL3 /// KIR3DS1 (11738374_at) / RFU C1QL1 (11718748_at) / Fold change /veh C1QL1 (11718748_at) / RFU TMPRSS4 (11747572_a_at) / Fold change /veh TMPRSS4 (11747572_a_at) / RFU HAMP (11756126_x_at) / Fold change /veh HAMP (11756126_x_at) / RFU RNFT2 (11725882_a_at) / Fold change /veh RNFT2 (11725882_a_at) / RFU NR4A2 (11747474_a_at) / Fold change /veh NR4A2 (11747474_a_at) / RFU ABCC12 (11746883_a_at) / Fold change /veh ABCC12 (11746883_a_at) / RFU TMEM136 (11760407_x_at) / Fold change /veh TMEM136 (11760407_x_at) / RFU CLDN22 /// WWC2 (11732394_at) / Fold change /veh CLDN22 /// WWC2 (11732394_at) / RFU HLA-DPB1 (11760878_x_at) / Fold change /veh HLA-DPB1 (11760878_x_at) / RFU SPINT1 (11716480_a_at) / Fold change /veh SPINT1 (11716480_a_at) / RFU GAP43 (11754022_s_at) / Fold change /veh GAP43 (11754022_s_at) / RFU A4GNT (11735810_at) / Fold change /veh A4GNT (11735810_at) / RFU PRB3 (11715151_x_at) / Fold change /veh PRB3 (11715151_x_at) / RFU TUBB4B (11761932_at) / Fold change /veh TUBB4B (11761932_at) / RFU CAPN14 (11732068_a_at) / Fold change /veh CAPN14 (11732068_a_at) / RFU TMCC2 (11721928_a_at) / Fold change /veh TMCC2 (11721928_a_at) / RFU IRGQ (11745062_a_at) / Fold change /veh IRGQ (11745062_a_at) / RFU FAM174B (11720279_a_at) / Fold change /veh FAM174B (11720279_a_at) / RFU TMPRSS4 (11748680_a_at) / Fold change /veh TMPRSS4 (11748680_a_at) / RFU FAM212B (11763350_a_at) / Fold change /veh FAM212B (11763350_a_at) / RFU PLEKHG5 (11743358_a_at) / Fold change /veh PLEKHG5 (11743358_a_at) / RFU ZSCAN30 (11745921_a_at) / Fold change /veh ZSCAN30 (11745921_a_at) / RFU CMKLR1 (11741424_a_at) / Fold change /veh CMKLR1 (11741424_a_at) / RFU LOC101060620 /// MAPK8IP1 (11723275_at) / Fold change /veh LOC101060620 /// MAPK8IP1 (11723275_at) / RFU SPTSSB (11747773_x_at) / Fold change /veh SPTSSB (11747773_x_at) / RFU PRSS12 (11739890_at) / Fold change /veh PRSS12 (11739890_at) / RFU BIN1 (11741810_x_at) / Fold change /veh BIN1 (11741810_x_at) / RFU WNT11 (11732464_a_at) / Fold change /veh WNT11 (11732464_a_at) / RFU C10orf10 (11716521_a_at) / Fold change /veh C10orf10 (11716521_a_at) / RFU C5orf56 (11738089_at) / Fold change /veh C5orf56 (11738089_at) / RFU CYB561 (11721691_x_at) / Fold change /veh CYB561 (11721691_x_at) / RFU ANKRD19P (11752326_a_at) / Fold change /veh ANKRD19P (11752326_a_at) / RFU OR2T12 /// OR2T33 /// OR2T8 (11738714_s_at) / Fold change /veh OR2T12 /// OR2T33 /// OR2T8 (11738714_s_at) / RFU VCAN (11748164_a_at) / Fold change /veh VCAN (11748164_a_at) / RFU JSRP1 (11732532_at) / Fold change /veh JSRP1 (11732532_at) / RFU KRTAP10-11 (11738290_x_at) / Fold change /veh KRTAP10-11 (11738290_x_at) / RFU MYO3A (11730013_a_at) / Fold change /veh MYO3A (11730013_a_at) / RFU EBF3 (11725865_a_at) / Fold change /veh EBF3 (11725865_a_at) / RFU CAMK2N1 (11719241_x_at) / Fold change /veh CAMK2N1 (11719241_x_at) / RFU C5orf56 (11738088_a_at) / Fold change /veh C5orf56 (11738088_a_at) / RFU OLFML3 (11715873_a_at) / Fold change /veh OLFML3 (11715873_a_at) / RFU LOC100653217 /// NTM (11731650_a_at) / Fold change /veh LOC100653217 /// NTM (11731650_a_at) / RFU MAPK11 (11762145_a_at) / Fold change /veh MAPK11 (11762145_a_at) / RFU FIZ1 (11724087_x_at) / Fold change /veh FIZ1 (11724087_x_at) / RFU OASL (11726364_x_at) / Fold change /veh OASL (11726364_x_at) / RFU SOX15 (11748057_x_at) / Fold change /veh SOX15 (11748057_x_at) / RFU CD79A (11719716_a_at) / Fold change /veh CD79A (11719716_a_at) / RFU HIST1H1D (11736915_at) / Fold change /veh HIST1H1D (11736915_at) / RFU CASKIN2 (11723855_a_at) / Fold change /veh CASKIN2 (11723855_a_at) / RFU LOC730098 (11760151_x_at) / Fold change /veh LOC730098 (11760151_x_at) / RFU OR4N2 (11742367_at) / Fold change /veh OR4N2 (11742367_at) / RFU PRRT2 (11749266_a_at) / Fold change /veh PRRT2 (11749266_a_at) / RFU SNX32 (11753110_a_at) / Fold change /veh SNX32 (11753110_a_at) / RFU CDHR5 (11726645_a_at) / Fold change /veh CDHR5 (11726645_a_at) / RFU RCAN1 (11760418_a_at) / Fold change /veh RCAN1 (11760418_a_at) / RFU FAM167A (11723789_a_at) / Fold change /veh FAM167A (11723789_a_at) / RFU FAM26E (11764081_at) / Fold change /veh FAM26E (11764081_at) / RFU ISYNA1 (11749810_s_at) / Fold change /veh ISYNA1 (11749810_s_at) / RFU ACY1 (11761880_at) / Fold change /veh ACY1 (11761880_at) / RFU 11764098_at / Fold change /veh 11764098_at / RFU SAMD14 (11745864_x_at) / Fold change /veh SAMD14 (11745864_x_at) / RFU NPB (11741838_a_at) / Fold change /veh NPB (11741838_a_at) / RFU TMPRSS6 (11731388_a_at) / Fold change /veh TMPRSS6 (11731388_a_at) / RFU KRTAP10-2 (11738614_at) / Fold change /veh KRTAP10-2 (11738614_at) / RFU ARHGAP8 /// PRR5-ARHGAP8 (11727945_x_at) / Fold change /veh ARHGAP8 /// PRR5-ARHGAP8 (11727945_x_at) / RFU KRTAP5-7 /// NADSYN1 (11734609_at) / Fold change /veh KRTAP5-7 /// NADSYN1 (11734609_at) / RFU RASL12 (11751679_a_at) / Fold change /veh RASL12 (11751679_a_at) / RFU CDKN2B (11736163_a_at) / Fold change /veh CDKN2B (11736163_a_at) / RFU PRF1 (11729649_at) / Fold change /veh PRF1 (11729649_at) / RFU, ZNF638 /// ZNF638-IT1 / Fold change vs veh, ZNF638 /// ZNF638-IT1 / RFU, PANK3 / Fold change vs veh, PANK3 / RFU, SH3YL1 / Fold change vs veh, SH3YL1 / RFU, ZEB2 / Fold change vs veh, ZEB2 / RFU, NRIP1 / Fold change vs veh, NRIP1 / RFU, PTTG1IP / Fold change vs veh, PTTG1IP / RFU, CAPN2 / Fold change vs veh, CAPN2 / RFU, MED14 / Fold change vs veh, MED14 / RFU, SNORA58 / Fold change vs veh, SNORA58 / RFU, C1orf63 / Fold change vs veh, C1orf63 / RFU, LRRFIP1 / Fold change vs veh, LRRFIP1 / RFU, NDUFAF7 / Fold change vs veh, NDUFAF7 / RFU, SLC12A2 / Fold change vs veh, SLC12A2 / RFU, IBTK / Fold change vs veh, IBTK / RFU, ESF1 / Fold change vs veh, ESF1 / Fold change vs veh, TMEM50B / RFU, TAOK1 / Fold change vs veh, TAOK1 / RFU, ACBD3 / Fold change vs veh, ACBD3 / RFU, TMA16 / Fold change vs veh, TMA16 / RFU, RWDD3 / Fold change vs veh, RWDD3 / RFU, BCAT1 / Fold change vs veh, BCAT1 / RFU, EDEM3 / Fold change vs veh, EDEM3 / RFU, TMEM33 / Fold change vs veh, TMEM33 / RFU, WDR75 / Fold change vs veh, WDR75 / RFU, AHCTF1 / Fold change vs veh, AHCTF1 / RFU, TFRC / Fold change vs veh, TFRC / RFU, ZDHHC17 / Fold change vs veh, ZDHHC17 / RFU, NOM1 / Fold change vs veh, NOM1 / RFU, ARL8B / Fold change vs veh, ARL8B / RFU, ZBTB11 / Fold change vs veh, ZBTB11 / RFU, TAMM41 / Fold change vs veh, TAMM41 / RFU, KIAA1704 /// LOC100996395 / Fold change vs veh, KIAA1704 /// LOC100996395 / RFU, ING1 / Fold change vs veh, ING1 / RFU, TRMT61B / Fold change vs veh, TRMT61B / RFU, FUBP3 / Fold change vs veh, FUBP3 / RFU, TP53 / Fold change vs veh, TP53 / RFU, TNKS2 / Fold change vs veh, TNKS2 / RFU, ZFP14 / Fold change vs veh, ZFP14 / RFU, ACTR2 / Fold change vs veh, ACTR2 / RFU, PPP3R1 / Fold change vs veh, PPP3R1 / RFU, PIK3R1 / Fold change vs veh, PIK3R1 / RFU, HNRNPA1 / Fold change vs veh, HNRNPA1 / RFU, RNF170 / Fold change vs veh, RNF170 / RFU, ZNF28 / Fold change vs veh, ZNF28 / RFU, RNGTT / Fold change vs veh, RNGTT / RFU, OGT / Fold change vs veh, OGT / RFU, BRD1 / Fold change vs veh, BRD1 / RFU, MARS / Fold change vs veh, MARS / RFU, ZNF655 / Fold change vs veh, ZNF655 / RFU, FAHD1 / Fold change vs veh, FAHD1 / RFU, BDP1 / Fold change vs veh, BDP1 / RFU, LRRCC1 / Fold change vs veh, LRRCC1 / RFU, ARID1A / Fold change vs veh, ARID1A / RFU, ZNF146 / Fold change vs veh, ZNF146 / RFU, ZNF330 / Fold change vs veh, ZNF330 / RFU, GPN3 / Fold change vs veh, GPN3 / RFU, C9orf123 / Fold change vs veh, C9orf123 / RFU, N4BP2L2 / Fold change vs veh, N4BP2L2 / RFU, ARFIP1 / Fold change vs veh, ARFIP1 / RFU, FAM179B / Fold change vs veh, FAM179B / RFU, BCL10 / Fold change vs veh, BCL10 / RFU, UHRF1BP1L / Fold change vs veh, UHRF1BP1L / RFU, BET1 / Fold change vs veh, BET1 / RFU, CNOT2 / Fold change vs veh, CNOT2 / RFU, ZNF268 / Fold change vs veh, ZNF268 / Fold change vs veh, ZNF507 / RFU, DGCR2 / Fold change vs veh, DGCR2 / RFU, WDSUB1 / Fold change vs veh, WDSUB1 / Fold change vs veh, HSP90B1 /// MIR3652 / RFU, ADSS / Fold change vs veh, ADSS / RFU, GK / Fold change vs veh, GK / RFU, ZNF148 / Fold change vs veh, ZNF148 / RFU, TAF9 / Fold change vs veh, TAF9 / RFU, SLC1A5 / Fold change vs veh, SLC1A5 / RFU, SLMO2 / Fold change vs veh, SLMO2 / RFU, ABCC4 / Fold change vs veh, ABCC4 / RFU, LOC101060439 /// RAP1B / Fold change vs veh, LOC101060439 /// RAP1B / RFU, RFX7 / Fold change vs veh, RFX7 / RFU, GTPBP10 / Fold change vs veh, GTPBP10 / RFU, CNEP1R1 / Fold change vs veh, CNEP1R1 / RFU, BIVM-ERCC5 /// ERCC5 / Fold change vs veh, BIVM-ERCC5 /// ERCC5 / RFU, ILF3 / Fold change vs veh, ILF3 / RFU 11762660_at / Fold change /veh 11762660_at / RFU VCAN (11757783_s_at) / Fold change /veh VCAN (11757783_s_at) / RFU DDX43 (11728927_at) / Fold change /veh DDX43 (11728927_at) / RFU KRT8 (11758188_x_at) / Fold change /veh KRT8 (11758188_x_at) / RFU NKD1 (11759106_at) / Fold change /veh NKD1 (11759106_at) / RFU SRD5A1 (11742802_a_at) / Fold change /veh SRD5A1 (11742802_a_at) / RFU TPSAB1 /// TPSB2 (11721975_s_at) / Fold change /veh TPSAB1 /// TPSB2 (11721975_s_at) / RFU GSTM3 (11746129_a_at) / Fold change /veh GSTM3 (11746129_a_at) / RFU IL23R (11737362_x_at) / Fold change /veh IL23R (11737362_x_at) / RFU TMEM51 (11727254_a_at) / Fold change /veh TMEM51 (11727254_a_at) / RFU PIWIL2 (11732686_x_at) / Fold change /veh PIWIL2 (11732686_x_at) / RFU ORM1 (11744905_x_at) / Fold change /veh ORM1 (11744905_x_at) / RFU CCDC152 (11743942_at) / Fold change /veh CCDC152 (11743942_at) / RFU ECM1 (11717891_a_at) / Fold change /veh ECM1 (11717891_a_at) / RFU IL23R (11748794_a_at) / Fold change /veh IL23R (11748794_a_at) / RFU TNFAIP8L3 (11732012_x_at) / Fold change /veh TNFAIP8L3 (11732012_x_at) / RFU MBOAT4 (11741988_at) / Fold change /veh MBOAT4 (11741988_at) / RFU 11764193_at / Fold change /veh 11764193_at / RFU TMEM53 (11763286_at) / Fold change /veh TMEM53 (11763286_at) / RFU MAGEB2 (11727129_at) / Fold change /veh MAGEB2 (11727129_at) / RFU TMEM200A (11744735_a_at) / Fold change /veh TMEM200A (11744735_a_at) / RFU CCDC152 (11751479_a_at) / Fold change /veh CCDC152 (11751479_a_at) / RFU FAM211A (11726209_a_at) / Fold change /veh FAM211A (11726209_a_at) / RFU RGS16 (11746705_a_at) / Fold change /veh RGS16 (11746705_a_at) / RFU VCAN (11755009_s_at) / Fold change /veh VCAN (11755009_s_at) / RFU RHOB (11743442_s_at) / Fold change /veh RHOB (11743442_s_at) / RFU RGS16 (11720943_a_at) / Fold change /veh RGS16 (11720943_a_at) / RFU RGS16 (11720944_at) / Fold change /veh RGS16 (11720944_at) / RFU, VPS4B / Fold change vs veh, VPS4B / RFU, CREB1 / Fold change vs veh, CREB1 / RFU, DNAJC13 / Fold change vs veh, DNAJC13 / RFU, GNAQ / Fold change vs veh, GNAQ / RFU, CDK5R1 / Fold change vs veh, CDK5R1 / RFU, ZRANB3 / Fold change vs veh, ZRANB3 / RFU, CUL4A / Fold change vs veh, CUL4A / RFU, CCNY / Fold change vs veh, CCNY / RFU, UFL1 / Fold change vs veh, UFL1 / RFU, COG3 / Fold change vs veh, COG3 / RFU, DIAPH2 / Fold change vs veh, DIAPH2 / RFU, SKA2 / Fold change vs veh, SKA2 / RFU, AFF3 / Fold change vs veh, AFF3 / RFU, LMF1 / Fold change vs veh, LMF1 / RFU, IPO11 / Fold change vs veh, IPO11 / RFU, DFFB / Fold change vs veh, DFFB / RFU, FOXP1 / Fold change vs veh, FOXP1 / RFU, CARD8 / Fold change vs veh, CARD8 / RFU, STRN3 / Fold change vs veh, STRN3 / RFU, ADK / Fold change vs veh, ADK / RFU, RASSF2 / Fold change vs veh, RASSF2 / RFU, WIPF1 / Fold change vs veh, WIPF1 / RFU, LARP1B / Fold change vs veh, LARP1B / RFU, RASA1 / Fold change vs veh, RASA1 / RFU, RB1 / Fold change vs veh, RB1 / RFU, PPFIA1 / Fold change vs veh, PPFIA1 / RFU, MAT2A / Fold change vs veh, MAT2A / RFU, CCT5 / Fold change vs veh, CCT5 / RFU, WDR92 / Fold change vs veh, WDR92 / RFU, CUX1 / Fold change vs veh, CUX1 / RFU, TTC7A / Fold change vs veh, TTC7A / RFU, TMEM135 / Fold change vs veh, TMEM135 / RFU, DEPTOR / Fold change vs veh, DEPTOR / RFU, CPM / Fold change vs veh, CPM / RFU, DNAJB6 / Fold change vs veh, DNAJB6 / RFU, CACNA2D3 / Fold change vs veh, CACNA2D3 / RFU, DTX4 / Fold change vs veh, DTX4 / RFU, TFCP2 / Fold change vs veh, TFCP2 / RFU, GMCL1 /// GMCL1P1 / Fold change vs veh, GMCL1 /// GMCL1P1 / RFU, AEBP2 / Fold change vs veh, AEBP2 / RFU, SNHG1 /// SNORD22 /// SNORD25 /// SNORD26 /// SNORD27 /// SNORD28 /// SNORD29 /// SNORD31 / Fold change vs veh, SNHG1 /// SNORD22 /// SNORD25 /// SNORD26 /// SNORD27 /// SNORD28 /// SNORD29 /// SNORD31 / Fold change (Aza/veh), C12orf56 (ProbeSet 11735607_a_at) / Fold change (ACY-1035/veh), C12orf56 (ProbeSet 11735607_a_at) / Fold change (Aza/veh), FGFR1OP (ProbeSet 11751329_s_at) / Fold change (ACY-1035/veh), FGFR1OP (ProbeSet 11751329_s_at) / Fold change (Aza/veh), VPS36 (ProbeSet 11739960_a_at) / Fold change (ACY-1035/veh), VPS36 (ProbeSet 11739960_a_at) / RFU SYPL1 (11715823_x_at) / Fold change /veh SYPL1 (11715823_x_at) / RFU IGFBP7 (11715501_s_at) / Fold change /veh IGFBP7 (11715501_s_at) / RFU REEP3 (11722064_at) / Fold change /veh REEP3 (11722064_at) / RFU IGLL1 (11728026_x_at) / Fold change /veh IGLL1 (11728026_x_at): dose or concentration left out as unconfirmed
Details: MV-4-11 cells, 48 hours

## Nc1ncn([C@@H]2O[C@H](CO)[C@@H](O)[C@H]2O)c(=O)n1 [azacitidine]
  Fold change /veh FAM212B (11763350_a_at): 1.13
